Among the data in patent US11440880B2, “Thalidomide analogs and methods of use” (The USA, as represented by the Secretary, Department of …, priority 2015, dated 2022) are Nitrite, Viability and TNF-α values, retold here.

Holding throughout (assay type): cell-based, mouse
What all share (design): key: NS=not significant; a “+” sign=anti-inflammatory or increased cell numbers; a “−” sign=cell toxicity or pro-inflammatory

In data set [1] the test system is nitrite levels in the culture media. Description: Nitrite level (Griess Reagent System) in LPS-challenged RAW 264.7 cells. The settings on record: LPS 30 or 60 ng/mL, 24 h. On the procedure: (§1) Nitrite levels in the culture media were measured by use of the Griess Reagent System (Promega, Madison, Wis.), following the manufacturer's protocol. The O.D. of unknown samples was read at 520 nm λ, compared to a sodium nitrite standard curve (1.5 μM to 100 μM) and nitrite measured media concentrations expressed as μM units. As the lowest nitrite concentration on the Griess Reagent System standard curve was 1.5 μM, this was chosen as the effective cutoff for defining measurable nitrite concentrations. TNF-α protein levels were measured by use of an ELISA specific for mouse TNF-α protein (BioLegend, San Diego, Calif.) and are expressed as a % change from their appropriate control or as pg/ml.
(§2) RAW 264.7 cells obtained from ATCC (Manassas, Va., USA) were grown in DMEM media supplemented with 10% FCS, penicillin 100 μg/ml and streptomycin 100 μg/ml, and maintained at 37° C. and 5% CO2. Cells were seeded in 24 well plates and, 24 hours later, were utilized in studies. One hour prior to the initiation of any study, the seeding media was replaced with fresh media (1 mL), and the cells were allowed to equilibrate at 37° C. and 5% CO2.
(§3) RAW 264.7 cells were challenged with LPS (Sigma, St Louis, Mo.: serotype 055:B5) from at a final concentration of 30 or 60 ng/mL. This concentration of LPS in RAW 264.7 cells induces a sub-maximal rise in both TNF-alpha and nitrite levels without a loss in cellular viability. This sub-maximal rise is useful for assessing whether the addition of an experimental drug can either lower or further raise levels of TNF-α and nitrite. Twenty four hours following the addition of LPS, conditioned media was harvested and analyzed for quantification of secreted TNF-α protein and nitrite levels. Fresh media was replaced into the wells and cell viability was then assessed.
(§4) Thalidomide and analogs were prepared in tissue culture grade DMSO (Sigma). RAW 264.7 cells were pretreated with thalidomide, analogues or vehicle one hour prior to a challenge with LPS. The effects of various concentrations of thalidomide analogues were assessed. All compounds were synthesized to a chemical purity of >99.5%, as assessed by chemical characterization by a combination of 1H NMR, 13C NMR and GC/MS analyses (Bruker AC-300 spectrometer, together with elemental analyses (Atlantic Microlab, Inc., Norcross, Ga.).
For orientation: The Griess reaction detects nitrite, a stable product of nitric oxide.

The subject of a further data set is RAW 264.7 cells. The data set is described as follows: Cell viability (CellTiter 96 AQueous One) of LPS-challenged RAW 264.7 cells. How it is done:
The CellTiter 96® AQueous One Solution Cell Proliferation Assay (Promega, Madison, Wis.) is routinely used as an assay of cell proliferation, and was used according to the manufacturer's recommendations. Changes in cellular health status are determined by use of indirect measures related to the formation of a colored tetrazolium dye product that can be measured spectrophotometrically at 490 nm λ. […] Optical densities (expressed as O.D.s) were measured after various incubations.
as §2, §3, §4

The next data set concerns TNF-α protein. Description: TNF-α protein level (ELISA) in LPS-challenged RAW 264.7 cells. The settings on record: LPS 30 or 60 ng/mL, 24 h. How it is done:
as §1, §2, §3, §4
On the technique in general: ELISA stands for enzyme-linked immunosorbent assay.

For the compound `Nc1cccc2c1CN([C@@H]1C[C@H]3CC[C@@H]1C3)C2=O` [Compound 100], the Nitrite result in data set [1] (1 μM), in data set [1] (10 μM) and in data set [1] (30 μM) was “NS” throughout. Further, the Viability entry in the data set on RAW 264.7 cells (1 μM), in the data set with RAW 264.7 cells (10 μM) and with RAW 264.7 cells (30 μM) was “NS” each time. The TNF-α result in the data set on TNF-α protein (1 μM), with TNF-α protein (10 μM) and with TNF-α protein (30 μM) was “NS” in each case.
Consider `O=C1c2cccc([N+](=O)[O-])c2CN1[C@H]1C[C@H]2CC[C@@H]1C2` [Compound 101], for which the Nitrite entry in data set [1] (1 μM), in data set [1] (10 μM) and in data set [1] (30 μM) was “+” in each case. For the same compound, the Viability result in the data set on RAW 264.7 cells (1 μM) is on record as “−”; in the data set with RAW 264.7 cells (10 μM), “−”; with RAW 264.7 cells (30 μM), “NS”. Also, the values for the TNF-α entry with TNF-α protein (1 μM), in the data set with TNF-α protein (10 μM) and in the data set on TNF-α protein (30 μM) were “NS”, “NS” and “+”, respectively.
Regarding `Nc1cccc2c1CN([C@H]1C[C@H]3CC[C@@H]1C3)C2=O` [Compound 102], the Nitrite result in data set [1] (1 μM), in data set [1] (10 μM) and in data set [1] (30 μM) was “NS” in each case. Further, the Viability entry with RAW 264.7 cells (1 μM), in the data set on RAW 264.7 cells (10 μM) and in the data set with RAW 264.7 cells (30 μM) was “NS” in each case. Moreover, the TNF-α entry with TNF-α protein (1 μM), with TNF-α protein (10 μM) and in the data set with TNF-α protein (30 μM) was “NS” each time.
Regarding `CC1(C)[C@@H]2CC[C@H](CN3Cc4c(cccc4[N+](=O)[O-])C3=O)[C@H]1C2` [Compound 103], the Nitrite result in data set [1] (1 μM) is reported as “+”; in data set [1] (10 μM) it was “+”; in data set [1] (30 μM), “NS”. Besides, the Viability entry in the data set on RAW 264.7 cells (1 μM) is reported as “NS”; in the data set on RAW 264.7 cells (10 μM) it was “NS”; with RAW 264.7 cells (30 μM), “SIG”. The TNF-α entry is “NS” in the data set with TNF-α protein (1 μM), “+” in the data set with TNF-α protein (10 μM) and “SIG” in the data set on TNF-α protein (30 μM).
Take `CC1(C)[C@@H]2CC[C@H](CN3Cc4c(N)cccc4C3=O)[C@H]1C2` [Compound 104]: the Nitrite entry in data set [1] (1 μM), in data set [1] (10 μM) and in data set [1] (30 μM) was “−” throughout. Moreover, the Viability result in the data set on RAW 264.7 cells (1 μM), in the data set with RAW 264.7 cells (10 μM) and in the data set with RAW 264.7 cells (30 μM) was “NS” in each case. Besides, the TNF-α result in the data set on TNF-α protein (1 μM), with TNF-α protein (10 μM) and in the data set with TNF-α protein (30 μM) was “NS” throughout.
Consider `C[C@@H]1[C@@H](N2C=C3C(=CC=C/C3=N\OO)C2=O)C[C@H]2C[C@@H]1C2(C)C` [Compound 105], for which the values for the Nitrite entry in data set [1] (1 μM), in data set [1] (10 μM) and in data set [1] (30 μM) were “NS”, “+” and “+”, respectively. Besides, the Viability result with RAW 264.7 cells (1 μM) is “NS”; in the data set with RAW 264.7 cells (10 μM), “NS”; in the data set on RAW 264.7 cells (30 μM) it was “−”. In addition, the results for the TNF-α entry in the data set on TNF-α protein (1 μM), in the data set with TNF-α protein (10 μM) and with TNF-α protein (30 μM) were “NS”, “NS” and “+”, respectively.
For the compound `CC1(C)[C@@H]2CC[C@H](CN3C(=O)C4CC=CCC4C3=O)[C@H]1C2` (stereo partly drawn) [Compound 112], the Nitrite result is listed as “NS” in data set [1] (10 μM), “+” in data set [1] (30 μM) and “+” in data set [1] (60 μM). Besides, the Viability entry in the data set on RAW 264.7 cells (10 μM), with RAW 264.7 cells (30 μM) and with RAW 264.7 cells (60 μM) was “−” throughout. For the same compound, the TNF-α entry with TNF-α protein (10 μM) is “NS”; with TNF-α protein (30 μM), “+”; in the data set with TNF-α protein (60 μM), “+”.
For the compound `CC1(C)[C@@H]2CC[C@H](CN3C(=O)C4C5C=CC(C5)C4C3=O)[C@H]1C2` (stereo partly drawn) [Compound 113], the Nitrite entry in data set [1] (10 μM) is recorded as “NS”; in data set [1] (30 μM) it was “+”; in data set [1] (60 μM), “+”. For the same compound, the Viability entry in the data set with RAW 264.7 cells (10 μM), with RAW 264.7 cells (30 μM) and in the data set on RAW 264.7 cells (60 μM) was “−” throughout. The TNF-α entry is listed as “NS” in the data set with TNF-α protein (10 μM), “+” in the data set with TNF-α protein (30 μM) and “+” with TNF-α protein (60 μM).
